Measurements from patent publication US20250222120A1, “SYNTHESIS OF NOVEL SMALL MOLECULE CARM1 DEGRADERS, COMPOUNDS FORMED THEREBY, AND PHARMACEUTICAL COMPOSITIONS CONTAINING THEM” (Wisconsin Alumni Research Foundation, priority 2024, published 2025).

What was measured:
[1] = system: PABP1 and BAF155 di-methylation by CARM1; test: PABP1 and BAF155 di-methylation (me2a) inhibition in MCF7 cells, western blot; format: cell-based, human; conditions: 24 h, 0.1 μM 3b versus 10 μM TP-064
Source text: (See Wang et al. “CARM1 Methylates Chromatin Remodeling Factor BAF155 to Enhance Tumor Progression and Metastasis” Cancer Cell 2014, 25 (1), 21-36; Lee and Bedford. “PABP1 Identified as an Arginine Methyltransferase Substrate Using High-Density Protein Arrays” EMBO Rep. 2002, 3 (3), 268-273.) In fact, asymmetric dimethylation (me2a) of these proteins are routinely investigated for CARM1 inhibitors.
Western Blot Assay. Cells were harvested and washed with Dulbecco's phosphate-buffered saline (PBS), then lysed with 1×RIPA lysis buffer (50 mM Tris pH 7.5, 150 mM NaCl, 1% NP-40, 0.5% sodium deoxycholate, and 0.1% sodium dodecyl sulfate) supplemented with 1 mM phenylmethylsulfonyl fluoride, 10 μg/mL aprotinin, 1 μM leupeptin, and 10 μg/mL pepstatin on ice for 20 min. The supernatant was collected after spinning down at 15000 RPM at 4 degrees Celsius for 10 min. The concentration of whole lysates was quantified using a Bradford assay. 50-75 μg of cell lysates was boiled in 4× Laemmli Loading Dye and boiled at 100 degrees Celsius for 10 min. 25 μg were run in 8% SDS-PAGE gels and transferred to nitrocellulose membranes. Blots were blocked in 5% skim milk in PBST [PBS and 0.1% Tween 20] for 45 min, then incubated with primary antibodies at 4 degrees Celsius overnight. […]

[2] = system: MCF7 cells; test: Global quantitative proteomic analysis of MCF7 cells by mass spectrometry; format: cell-based, Homo sapiens; conditions: 25 nM, 4 h, two-fold cutoff, p-value ≤0.05, 3491 proteins quantified
Description: Sample preparation for global proteomics analysis. Sample preparation is similar to the previous report (Ma et al. “Strategy Based on Deglycosylation, Multiprotease, and Hydrophilic Interaction Chromatography for Large-Scale Profiling of Protein Methylation” Anal. Chem. 2017, 89 (23), 12909-12917). Briefly, treated MCF7 cells were harvested by washing with PBS buffer (Gibco, pH 7.4) and lysed in RIPA buffer supplemented with protease inhibitors for 20 min, then protein concentration was determined using a BCA Protein Assay Kit (Thermo Pierce, Rockford, IL) per manufacturer instructions. […] The concentrations of the peptide mixture were measured by peptide assay (Thermo Fisher Scientific). […]
LC-MS/MS data acquisition. Samples were analyzed on an Orbitrap Fusion Lumos Tribrid mass spectrometer (Thermo Fisher Scientific) coupled to a Dionex UltiMate 3000 UPLC system. […]
Data analysis. Protein identification and quantification by MaxQuant (version 1.5.3.8) based database searching, using the integrated Andromeda search engine with FDR <1% at peptide and protein levels. […] For label-free protein quantification (LFQ), the MaxQuant LFQ algorithm was used to quantitate the MS signals, and the proteins' intensities were represented in LFQintesnit (Schaab et al. “Analysis of High Accuracy, Quantitative Proteomics Data in the MaxQB Database” Mol. Cell. Proteomics 2012, 11 (3), M111.014068). […]

For `CNCCN1CCC(c2cc(CN(C)C(=O)c3cccc(Oc4ccc(OCC(=O)N5CCC(CN6CCC(CN7CCN(CC(=O)N[C@H](C(=O)N8C[C@H](O)C[C@H]8C(=O)N[C@@H](C)c8ccc(-c9scnc9C)cc8)C(C)(C)C)CC7)CC6)CC5)cc4)c3)ccn2)CC1` [Compound 3b, (2S,4R)-1-((S)-3,3-dimethyl-2-(2-(4-((1-((1-(2-(4-(3-(methyl((2-(1-(2-(methylamino)ethyl)piperidin-4-yl)pyridin-4-yl)methyl)carbamoyl)phenoxy)phenoxy)acetyl)piperidin-4-yl)methyl)piperidin-4-yl)methyl)piperazin-1-yl)acetamido)butanoyl)-4-hydroxy-N—((S)-1-(4-(4-methylthiazol-5-yl)phenyl)ethyl)pyrrolidine-2-carboxamide], the “Levels of PABP1 and BAF155 me2a inhibition” value [1] was “at least as equivalent to that of 10 μM of TP-064” and the “Number of significantly changed proteins compared to the DMSO group” value [2] was 25.
